The test system of the experiment is Vasopressin V2. The experiment is described as follows: Vasopressin V2 agonist effects of test compounds in normal conscious water-loaded rats. In kind it is in vivo. The following applies: Sprague-Dawley (CD) rats, oral 10 mg/kg, urine collected for four hours; for Osmolality (% Increase): change in osmolality as percent of control; for Urine Volume (% decrease): vs. control. The method, then:
Vasopressin V2 Agonist Effects of Test Compounds in Normal Conscious Water-Loaded Rats:
On the day of test, rats were placed individually into metabolic cages equipped with devices to separate the feces from the urine and containers for collection of urine. Test compound or reference agent was given at an oral dose of 10 mg/kg in a volume of 10 ml /kg. […] Thirty minutes after dosing the test compound, rats were gavaged with water at 30 ml /kg into the stomach using a feeding needle. During the test, rats were not provided with water or food. Urine was collected for four hours after dosing of the test compound. At the end of four hours, urine volume was measured. […] Determinations of Na^+, K^+ and Cl^- ion were carried out using ion specific electrodes in a Beckman SYNCHRON EL-ISE Electrolyte System analyzer. […] In the screening test, two rats were used for each compound. If the difference in the urine volume of the two rats was greater than 50%, a third rat was used.

As to `Cc1ccn(-c2ccc(C(=O)N3Cc4ccnn4Cc4ccccc43)c(C(F)(F)F)c2)n1` [Example 95, [4-(3-Methylpyrazol-1-yl)-2-trifluoromethylphenyl]-[5H,11H-pyrazolo[5,1-c]-[1,4]benzodiazepin-10-yl)-methanone], the “Osmolality (% Increase)” value is reported as 300% and the “Urine Volume (% decrease)” value worked out at 68%.
For the compound `Cc1ccn(-c2ccc(C(=O)O)c(Cl)c2)n1` [Example 97, 2-Chloro-4-(3-methyl-1H-pyrazol-1-yl)-benzoic acid], the “Osmolality (% Increase)” value turned out to be 106% and the “Urine Volume (% decrease)” value turned out to be 3%.
Taken in the same sequence, the figures for `O=C(c1ccc(-n2cccn2)nc1Cl)N1Cc2cccn2Cc2ccccc21` [Example 99, (2-Chloro-6-pyrazol-1-yl-pyridin-3-yl)-(5H,11H-pyrrolo[2,1-c][1,4]benzodiazepin-10-yl)-methanone] were 205% and 43%.
Taken in the same sequence, the figures for `Cc1ccn(-c2ccc(C(=O)N3Cc4cccn4Cc4ccccc43)c(Cl)n2)n1` [Example 100, [2-Chloro-6-(3-methylpyrazol-1-yl)-pyridin-3-yl]-(5H,11H-pyrrolo[2,1-c] [1,4]benzodiazepin-10-yl)-methanone] were 248% and 24%.
As for `Cc1cnn(-c2ccc(C(=O)N3Cc4cccn4Cc4ccccc43)c(Cl)n2)c1` [Example 101, [2-Chloro-6-(4-methylpyrazol-1-yl)-pyridin-3-yl](5H,11H-pyrrolo[2,1-c] [1,4]benzodiazepin-10-yl)-methanone], the “Osmolality (% Increase)” value was determined as 376% and the “Urine Volume (% decrease)” value is 76%.
`COc1cc(-n2ccc(C)n2)ccc1C(=O)N1Cc2cccn2Cc2ccccc21` [Example 107, [2-Methoxy-4-(3-methyl-pyrazol-1-yl)-phenyl](5H,11H-pyrrolo[2,1-c][1,4]-benzodiazepin-10-yl) methanone]: the “Osmolality (% Increase)” value is listed as 125% and the “Urine Volume (% decrease)” value is listed as 31%.
Taken in the same sequence, the figures for `COc1cc(-n2ccc(C)n2)ccc1C(=O)N1Cc2ccc(CN(C)C)n2Cc2ccccc21` [Example 108, (3-Dimethylaminomethyl-5H,11H-pyrrolo[2,1-c][1,4]benzodiazepin-10-yl)[2-methoxy-4-(3-methyl-pyrazol-1-yl)-phenyl]-methanone] were 145% and 30%.
Taken in the same sequence, the figures for `Cc1ccn(-c2ccc(C(=O)N3Cc4cccn4Cc4ccccc43)c(O)c2)n1` [Example 109] were 95% and 21%.
Regarding `Cn1cc(-c2ccc(C(=O)N3Cc4cccn4Cc4ccccc43)c(Cl)c2)cn1` [Example 115, [2-Chloro-4-(1-methyl-1H-pyrazol-4-yl)phenyl) (5H,11H-pyrrolo[2,1-c][1,4]-benzodiazepin-10-yl)-methanone], the “Osmolality (% Increase)” value came out at 229% and the “Urine Volume (% decrease)” value is recorded as 66%.
Taken in the same sequence, the figures for `Cc1ccn(-c2ccc(C(=O)N3Cc4ccnn4Cc4ccccc43)c(Cl)c2)n1` [Example 116, [2-Chloro-4-(3-methyl-pyrazol-1-yl)-phenyl]-(4H,10H-pyrazolo[5,1-c][1,4]-benzodiazepin-5-yl)-methanone] were 256% and 66%.
Taken in the same sequence, the figures for `Cc1ccn(-c2ccc(C(=O)N3Cc4nnnn4Cc4ccccc43)c(Cl)c2)n1` [Example 117] were 311% and 68%.
Regarding `Cn1ccc(-c2ccc(C(=O)N3Cc4ccnn4Cc4ccccc43)cc2)n1` [Example 120A, [4-(1-Methyl-1H-pyrazol-3-yl)phenyl](4H,10H-pyrazolo[5,1c][1,4]-benzodiazepin-5-yl) methanone], the “Osmolality (% Increase)” value was found to be 269% and the “Urine Volume (% decrease)” value is reported as 66%.

The values are drawn from patent EP1000062B1, “TRICYCLIC VASOPRESSIN AGONISTS” (Wyeth, priority 1997, dated 1999).
